Molecules are shown by their SMILES.

Type in all cases: biochemical
The target of assay [1] is T1, A. baumannii dihydrofolate reductase (AbDHFR) (Acinetobacter baumannii, UniProt A0A098SJI9).
T1 construct: gene folA; AbDHFR expressed from pET15b in E. coli BL21(DE3)
The assay can be described thus: DHFR activity assay (A340) in lysate of E. coli BL21(DE3) overexpressing AbDHFR.

Assay [2] has as its target T1, A. baumannii dihydrofolate reductase (AbDHFR). The assay can be described thus: DHFR activity assay (A340) in lysate of E. coli BL21(DE3) overexpressing AbDHFR; also E. coli surrogate growth and DHFR activity in treated A. baumannii.
Another assay concerns the target T2, human DHFR (hDHFR) (Homo sapiens, UniProt P00374).
T2 construct: hDHFR (from pL0035) expressed from pET15b in E. coli BL21(DE3)
T2 sequence (P00374 1-187): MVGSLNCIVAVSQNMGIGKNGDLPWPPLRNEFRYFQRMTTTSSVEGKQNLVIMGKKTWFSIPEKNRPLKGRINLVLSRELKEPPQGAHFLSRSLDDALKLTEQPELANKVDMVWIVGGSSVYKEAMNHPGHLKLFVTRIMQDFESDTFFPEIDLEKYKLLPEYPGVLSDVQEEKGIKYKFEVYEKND
The assay can be described thus: DHFR activity assay (A340) in lysate of E. coli BL21(DE3) overexpressing hDHFR.

T1 sequence (A0A098SJI9 entry or part of it): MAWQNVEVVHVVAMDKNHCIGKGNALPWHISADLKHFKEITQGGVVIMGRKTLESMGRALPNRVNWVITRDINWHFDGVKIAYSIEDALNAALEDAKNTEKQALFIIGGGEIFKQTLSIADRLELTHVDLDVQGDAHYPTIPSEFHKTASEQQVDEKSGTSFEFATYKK

`CCc1nc(N)nc(N)c1-c1ccc(Cl)cc1` [PYR, pyrimethamine] yielded an IC50 in assay [1] of 81.7 nM.

Turning to `COc1ccc(OC)c(NCc2ccc3nc(N)nc(N)c3c2Cl)c1` [MMV675968], the figures for the IC50 (in assay [2]; on human DHFR (hDHFR)) were 8.5 nM and 492 nM, respectively.

The IC50 is the concentration at which inhibition is half-maximal. Lower therefore signals greater potency.

The values above are taken from article PMC6821926, “Diaminoquinazoline MMV675968 from Pathogen Box inhibits Acinetobacter baumannii growth through targeting of dihydrofolate reductase” (Scientific Reports, 2019).
